Test results as given in patent US20160201063A1, “EPIGENETIC REGULATORS OF FRATAXIN” (RANA THERAPEUTICS, INC., priority 2013, published 2016).

Experiments:
FXN protein [1] = test: FXN protein western blot in GM03816 and GM04078 cells treated with histone lysine methyltransferase inhibitor; assay type: cell-based, human; settings: 3 days of HLMi treatment, 5 μM, 2.5 μM, 1.25 μM, vs DMSO
Description: Results from control cells treated with DMSO and without inhibitor treatment are also shown.
Human FRDA diseased cell lines GM03816 and GM04078 were plated at 150000 cells/well. The cells were treated at various concentrations and times with a histone lysine methyltransferase inhibitor dissolved in DMSO. The antibody used for detection of FXM protein was Abcam human FXN antibody (ab48281).

FXN mRNA [2] = test: Screen of epigenetic inhibitors in GM0321 normal fibroblasts, FXN RNA levels; assay type: cell-based, human; settings: for fold induction at 1 µM / fold induction at 5 µM: Homo sapiens, Fibroblast, 72 h; for fold induction at 1 µM: read-out: FXN mRNA fold change, 321B 1 uM; for fold induction at 5 µM: read-out: FXN mRNA fold change, 321B 5 uM
FXN mRNA [3] = test: Screen of library of eighty epigenetic inhibitors in GM03816 FRDA diseased fibroblasts, FXN mRNA fold change; assay type: cell-based, human; settings: for fold induction at 1 µM / fold induction at 5 µM: Homo sapiens, Fibroblast, 72 h; for fold induction at 1 µM: read-out: 3816 1 uM (FXN mRNA fold change); for fold induction at 5 µM: read-out: 3816 5 uM (FXN mRNA fold change)
Description: FXN RNA levels are indicated on the y-axis and the inhibitors used at both 1 μM and 5 μM are shown on the x-axis.
A screen of a library of eighty epigenetic inhibitors (Cayman Chemical) was performed in GM03816 FRDA fibroblasts to identify epigenetic regulators that upregulate FXN expression.

FXN mRNA [4] = test: Gapmer screen in differentiated myotubes, FXN mRNA levels; assay type: cell-based; settings: 4 days after transfection
Description: Subsequently, various oligos targeting ACTL6A, EID1, HIC1, JUND, KAT2A, PRKCD, and YEATS4 were screened in differentiated myotubes for FXN mRNA levels. Measurements were taken 4 days after transfection.

FXN protein [5] = test: Western blot of FXN protein in gapmer-treated GM03816 lysates; assay type: cell-based, human; settings: treated vs untreated
Description: Next, a Western blot with the Abcam ab48281 FXN and Abcam ab125267 tubulin antibodies were run using treated and untreated GM03816 lysates.

[6] = GM0321 normal fibroblasts, 1 uM inhibitor, 3 days of treatment
[7] = GM0321 normal fibroblasts, 5 uM inhibitor, 3 days of treatment
[8] = GM03816 FRDA diseased fibroblasts, 1 uM inhibitor, 3 days of treatment
[9] = GM03816 FRDA diseased fibroblasts, 5 uM inhibitor, 3 days of treatment

Compound | fold induction at 1 µM (FXN mRNA [2]; [6]) | fold induction at 5 µM (FXN mRNA [2]; [7]) | fold induction at 1 µM (FXN mRNA [3]; [8]) | fold induction at 5 µM (FXN mRNA [3]; [9]) | FXN mRNA level (FXN mRNA [4]) | further results
COc1cc2nc(N3CCCN(C)CC3)nc(NC3CCN(Cc4ccccc4)CC3)c2cc1OC [HLMi, 2-(Hexahydro-4-methyl-1H-1,4-diazepin-1-yl)-6,7-dimethoxy-N-(1-(phenylmethyl)-4-piperidinyl)-4-quinazolinamine] |  |  |  |  |  | FXN protein level (western blot) (FXN protein [1]): FXN human protein upregulation
CCCCc1nc2cc(/C=C/C(=O)NO)ccc2n1CCN(CC)CC [SB 939] | 0.435 | 0.465 | 0.298 | 0.315 |  | 
CC(C(=O)Nc1cccc(/N=C/c2c(O)ccc3ccccc23)c1)c1ccccc1 (stereo not shown) [Salermide] | 1.06 | 0.815 | 1.16 | 0.996 |  | 
Nc1ncnc2c1ncn2[C@@H]1O[C@H](C[C@@H](N)CC[C@H](N)C(=O)O)[C@@H](O)[C@H]1O [Sinefungin, reference compound] | 0.551 | 0.821 | 0.895 | 0.862 |  | 
CC(NC(=O)c1ccccc1/N=C/c1c(O)ccc2ccccc12)c1ccccc1 (stereo not shown) [Sirtinol] | 0.81 | 1.02 | 1.06 | 0.92 |  | 
CCCC(=O)[O-].[Na+] [Sodium Butyrate] |  |  |  |  |  | fold induction at 1 µM (FXN mRNA [2]): 1.06; fold induction at 5 µM (FXN mRNA [2]): 0.707; fold induction at 1 µM (FXN mRNA [3]): 1.03; fold induction at 5 µM (FXN mRNA [3]): 1.16
O=C1CCc2c(ccc3ccccc23)O1 [Splitomicin] | 1.08 | 1.01 | 0.957 | 0.939 |  | 
O=C(CCCCCCC(=O)NO)NO [Suberohydroxamic Acid] | 0.959 | 1.02 | 1.18 | 0.982 |  | 
Cc1ccc(C(=O)Nc2ccc(S(=O)(=O)O)c3cc(S(=O)(=O)O)cc(S(=O)(=O)O)c23)cc1NC(=O)c1cccc(NC(=O)Nc2cccc(C(=O)Nc3cc(C(=O)Nc4ccc(S(=O)(=O)O)c5cc(S(=O)(=O)O)cc(S(=O)(=O)O)c45)ccc3C)c2)c1 [Suramin] |  |  |  |  |  | fold induction at 5 µM (FXN mRNA [2]): 0.772; fold induction at 1 µM (FXN mRNA [3]): 0.954; fold induction at 5 µM (FXN mRNA [3]): 0.835
CC(/C=C/C(=O)NO)=C\[C@@H](C)C(=O)c1ccc(N(C)C)cc1 [Trichostatin A] |  |  |  |  |  | FXN mRNA fold change, 321B 1 uM (FXN mRNA [2]; [6]): 1.023; FXN mRNA fold change, 321B 5 uM (FXN mRNA [2]; [7]): 0.7721; 3816 1 uM (FXN mRNA fold change) (FXN mRNA [3]; [8]): 0.9338; 3816 5 uM (FXN mRNA fold change) (FXN mRNA [3]; [9]): 0.6921
CN1CCc2c(c3ccccc3n2Cc2ccc(C(=O)NO)cc2)C1 [Tubastatin A] |  |  |  |  |  | FXN mRNA fold change, 321B 1 uM (FXN mRNA [2]; [6]): 0.8993; FXN mRNA fold change, 321B 5 uM (FXN mRNA [2]; [7]): 1.038; 3816 1 uM (FXN mRNA fold change) (FXN mRNA [3]; [8]): 0.9276; 3816 5 uM (FXN mRNA fold change) (FXN mRNA [3]; [9]): 0.9192
COc1cc2c(NC3CCN(C)CC3)nc(N3CCCN(C)CC3)nc2cc1OCCCN(C)C [UNC0224, 7-[3-(Dimethylamino)propoxy]-2-(hexahydro-4-methyl-1H-1,4-diazepin-1-yl)-6-methoxy-N-(1-methyl-4-piperidinyl)-4-quinazolinamine, reference compound] | 0.876 | 0.875 | 0.958 | 0.656 |  | 
COc1cc2c(NC3CCN(C(C)C)CC3)nc(C3CCCCC3)nc2cc1OCCCN1CCCC1 [UNC0638, 2-Cyclohexyl-6-methoxy-N-[1-(1-methylethyl)-4-piperidinyl]-7-[3-(1-pyrrolidinyl)propoxy]-4-quinazolinamine, reference compound] | 1.09 | 1.02 | 1.27 | 1.17 |  | 
CCCC(CCC)C(=O)O [Valproic acid] | 1.26 | 0.847 | 0.901 | 1 |  | 
O=c1ncccn1[C@@H]1O[C@H](CO)[C@@H](O)[C@H]1O [Zebularine] | 1.07 | 1.03 | 1.07 | 1.09 |  | 
(3S,3′S,5aR,5aR,10bR,10′bR,11aS,11′aS)- 2,2′,3,3′,5a,5′a,6,6′-octahydro- 3,3′-bis(hydroxymethyl)-2,2′- dimethyl-[10b,10′b(11H,11′H)- bi3,11a-epidithio-11aH- pyrazino[1′,2′:1,5]pyrrolo[2,3- b]indole]-1,1′4,4′-tetrone [Chaetocin, reference compound] |  |  |  |  |  | FXN mRNA fold change, 321B 1 uM (FXN mRNA [2]; [6]): 0.9084; FXN mRNA fold change, 321B 5 uM (FXN mRNA [2]; [7]): 0.9952; 3816 1 uM (FXN mRNA fold change) (FXN mRNA [3]; [8]): 0.9302; 3816 5 uM (FXN mRNA fold change) (FXN mRNA [3]; [9]): 0.7778

Compound | fold induction at 1 µM (FXN mRNA [2]; [6]) | fold induction at 5 µM (FXN mRNA [2]; [7]) | fold induction at 1 µM (FXN mRNA [3]; [8]) | fold induction at 5 µM (FXN mRNA [3]; [9]) | FXN mRNA level (FXN mRNA [4]) | further results
(−)-Neplanocin A |  |  |  |  |  | FXN mRNA fold change, 321B 1 uM (FXN mRNA [2]; [6]): 0.8734; FXN mRNA fold change, 321B 5 uM (FXN mRNA [2]; [7]): 1.105; 3816 1 uM (FXN mRNA fold change) (FXN mRNA [3]; [8]): 1.067; 3816 5 uM (FXN mRNA fold change) (FXN mRNA [3]; [9]): 0.943
ACTL6A-02: LNA/DNA gapmer to human ACTL6A, SEQ ID NO 2, ATCGCCATCTATTTC (LNA modifications, chemistry not fully specified) |  |  |  |  | upregulation of FXN mRNA | 
ACTL6A-03: LNA/DNA gapmer to human ACTL6A, SEQ ID NO 3, GAACGACCATTAGCA (LNA modifications, chemistry not fully specified) |  |  |  |  | upregulation of FXN mRNA | FXN protein level (western blot) (FXN protein [5]): strong upregulation
ACTL6A-04: LNA/DNA gapmer to human ACTL6A, SEQ ID NO 4, GCCCAGTAGAACGAC (LNA modifications, chemistry not fully specified) |  |  |  |  | upregulation of FXN mRNA | 
Anacardic Acid |  |  |  |  |  | FXN mRNA fold change, 321B 1 uM (FXN mRNA [2]; [6]): 1.169; FXN mRNA fold change, 321B 5 uM (FXN mRNA [2]; [7]): 0.8356; 3816 1 uM (FXN mRNA fold change) (FXN mRNA [3]; [8]): 1.162; 3816 5 uM (FXN mRNA fold change) (FXN mRNA [3]; [9]): 1.01
EID1-04: LNA/DNA gapmer to human EID1, SEQ ID NO 12, AGCTCTTCGATAAAA (LNA modifications, chemistry not fully specified) |  |  |  |  | upregulation of FXN mRNA | 
HIC1-1: LNA/DNA gapmer to human HIC1, SEQ ID NO 70, GGCCGGTGTAGATGA (LNA modifications, chemistry not fully specified) |  |  |  |  | upregulation of FXN mRNA | 
JUND-1: LNA/DNA gapmer to human JUND, SEQ ID NO 61, CCGTAGAAGGGTGTT (LNA/DNA gapmer, wing pattern not given here) |  |  |  |  | upregulation of FXN mRNA | FXN protein level (western blot) (FXN protein [5]): strong upregulation
JUND-6: LNA/DNA gapmer to human JUND, SEQ ID NO 66, TGGCTCGTCCTTGAG (LNA modifications, chemistry not fully specified) |  |  |  |  | upregulation of FXN mRNA | 
KAT2A-05: LNA/DNA gapmer to human KAT2A, SEQ ID NO 35, CATTGACCAGCTCCA (LNA modifications, chemistry not fully specified) |  |  |  |  | upregulation of FXN mRNA | 
KAT2A-06: LNA/DNA gapmer to human KAT2A, SEQ ID NO 36, GGCGATATACTCCTT (LNA modifications, chemistry not fully specified) |  |  |  |  | upregulation of FXN mRNA | 
Oxamflatin |  |  |  |  |  | FXN mRNA fold change, 321B 1 uM (FXN mRNA [2]; [6]): 0.5612; FXN mRNA fold change, 321B 5 uM (FXN mRNA [2]; [7]): 0.2391; 3816 1 uM (FXN mRNA fold change) (FXN mRNA [3]; [8]): 0.3506; 3816 5 uM (FXN mRNA fold change) (FXN mRNA [3]; [9]): 0.108
PRKCD-2: LNA/DNA gapmer to human PRKCD, SEQ ID NO 42, TGCGCATAGACTGTT (LNA modifications, chemistry not fully specified) |  |  |  |  | upregulation of FXN mRNA | FXN protein level (western blot) (FXN protein [5]): strong upregulation
UNC0321 (trifluoroacetate salt) |  |  |  |  |  | FXN mRNA fold change, 321B 1 uM (FXN mRNA [2]; [6]): 0.7517; FXN mRNA fold change, 321B 5 uM (FXN mRNA [2]; [7]): 0.605; 3816 1 uM (FXN mRNA fold change) (FXN mRNA [3]; [8]): 0.9323; 3816 5 uM (FXN mRNA fold change) (FXN mRNA [3]; [9]): 0.8929
YEATS4-5: LNA/DNA gapmer to human YEATS4, SEQ ID NO 87, TCGAATTCACCCCAT (LNA modifications, chemistry not fully specified) |  |  |  |  | upregulation of FXN mRNA | 
YEATS4-9: LNA/DNA gapmer to human YEATS4, SEQ ID NO 91, AGTTTCACGACTTGC (LNA modifications, chemistry not fully specified) |  |  |  |  | upregulation of FXN mRNA | 
